Assay results published in patent publication US10314912B2, “Polymer coating compositions and coated products” (Ariste Medical, LLC, priority 2012, dated 2019).

Key:
[1] = HPLC of methanol extracts: drug loading of coated ePTFE hernia mesh; type: physicochemical; conditions: soak in 10 mg/ml of each drug in methanol, ~17 hours, 4° C
Experimental: Specimens were then removed from drug solution and dried in air. Following air-drying, specimens were rinsed in either methanol) or water. For the methanol rinse, specimens were suspended using forceps and agitated by hand in two consecutive 15 ml methanol rinses for 15 seconds, then allowed to air dry. For the water rinse, specimens were transferred to 10 ml of deionized water in conical tubes and aggressively vortexed for 2 minutes. Specimens were then allowed to air dry. The above steps resulting in the following four conditions: (a) 1 coat—water rinse; (b) 3 coats—water rinse; (c) 1 coat—methanol rinse; and (d) 3 coat—methanol rinse.
Dried specimens were individually extracted in 1 ml of methanol at 4° C. for 64 or 76 hours. 20 μl of each extract were run on HPLC to assess the effects of rinse method and number of coating cycles on drug loading of the coatings. HPLC conditions were as follows: 30° C.; 250×3 mm C-18 with 5 μm packing; 280 nm absorbance; Channel A—35 mM Na2HPO4 with 1 vol % triethylamine, pH=8.1 w/phosphoric acid; Channel B—acetonitrile/Running parameters at 1 ml/min: (i) 0-10 minutes—gradient 0-50 vol % Channel B; (ii) 10-20 minutes—50 vol % Channel B; (iii) 20-25 minutes—20-0 vol % Channel B.

[2] = HPLC test of drug stability to curing light in coating composition components
Experimental: HPLC tests were performed to assess the effects of various components of the coating composition on drug stability. HPLC analysis was run on the starting 50 μg/ml drug solution as a control. HPLC parameters were as follows: Channel A=>35 mM sodium phosphate pH=7.5 w/1 v % TEA; Channel B=>acetonitrile; 0-50% B 0-10 min, 50% B 10-13 min, 50-0% B 13-15 min, 0% B 6 min post time; 20 μl injections; 1 ml/min; 30° C.; 335 nm. […] Samples tested included: (1) Solvent+Drug; (2) Solvent+Photoinitiator (PI)+Drug; and (3) Solvent+Monomer Component+PI+Drug. […] The Solvent+PI+Drug (Sample 2) samples were prepared as follows: 1% wt/wt IrgaCure® 2959 was added to the 50 μg/ml drug solution solutions and cured according to the parameters described for Formulation 5 in Table 2. The Solvent+Monomer Component+PI+Drug+Drug (Sample 3) were prepared as follows: ˜3 ml Formulation 5 (Table 2) inspired solution with exception of using the 50 μg/ml drug solution and 20 wt % comonomer as the solvent was created and exposed to cure parameters detailed for Formulation 5 (Table 2) followed by HPLC analysis upon blending 1:1 with methanol, to terminate polymerization reaction/free-radicals. Note: polymerization of small volumes of Formulation 5 results in evaporation of the acetone solvent, thereby concentrating the monomers. […] FIG. 5A depicts HPLC chromatograms from the Sample 1 (dark gray line) and Sample 2 (light gray line) without exposure to light. […] FIG. 5B depicts chromatograms from the Sample 1 samples without light exposure and with light exposure. […] FIG. 5C depicts chromatograms from Sample 2 without light exposure and with light exposure. […] FIG. 5D depicts chromatograms from Sample 1 and Sample 3 after exposure to light.

drug stability (HPLC peaks) ([2]; 50 μg/ml in acetone, with or without photoinitiator, without exposure to light, FIG. 5A): stable
drug stability (HPLC peaks) ([2]; Sample 1, solvent alone, with light exposure, FIG. 5B): degraded by light exposure
Structure (SMILES): CO[C@H]1/C=C/O[C@@]2(C)Oc3c(C)c(O)c4c(O)c(c(/C=N/N5CCN(C)CC5)c(O)c4c3C2=O)NC(=O)/C(C)=C\C=C\[C@H](C)[C@H](O)[C@@H](C)[C@@H](O)[C@@H](C)[C@H](OC(C)=O)[C@@H]1C [rifampin]
absorption of drug into polymerized coating [1]: absorbed into the methacrylate coating matrix
drug stability (HPLC peaks) ([2]; Sample 2, solvent + 1% wt/wt IrgaCure 2959, with light exposure, FIG. 5C): did not protect the drugs from light-induced degradation
